Test results as given in patent publication US20100120690A1, “Polypeptides Having Antimicrobial Activity and Polynucleotides Encoding Same” (Novozymes Adenium Biotech A/S, priority 2005, published 2010).

How the values were obtained:
[1] = system: B. subtilis; assay: Minimal Effective Concentration (MEC) assay; type: cell-based, Bacillus subtilis
Procedure: (§1) Three antimicrobial polypeptides, which are variants of SEQ ID NO: 1, were tested for antimicrobial activity. A Minimal Effective Concentration assay (MEC, expressed as micrograms/mL) against different microorganisms was performed using the three plectasin mutants, Y40YR, N17R and Y25R following the protocol described in the book of Methods in Molecular Biology, Vol. 78, Antibacterial peptide protocol William M. Shafer, Human Press.

[2] = system: M. luteus; assay: Minimal Effective Concentration (MEC) assay; type: cell-based, Micrococcus luteus
Procedure: as §1

[3] = system: S. epidermis; assay: Minimal Effective Concentration (MEC) assay; type: cell-based, Staphylococcus epidermidis
Procedure: as §1

[4] = system: Staphylococcus carnosus ATCC51365; assay: Yeast screening assay: radial diffusion assay of yeast supernatants; type: cell-based; set-up: key: An activity of 3 is better than Plectasin; An activity of 2 corresponds to the activity of Plectasin; 1 is worse than Plectasin; settings: yeast supernatant, clearing zone in radial diffusion assay
In short: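 Activity scores (1 worse, 2 equal, 3 better than wild-type plectasin) come from the size of the radial-diffusion clearing zone against S. carnosus at 5×10^5 cfu/mL. Test samples were culture supernatants of yeast transformants induced with galactose for 3 days at 30 °C, and plates were developed at 37 °C with MTT.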

[5] = system: S. aureus; assay: Minimal Inhibitory Concentration, NCCLS guidelines (Example 4); type: cell-based, Staphylococcus aureus; settings: purified peptide
Procedure: The Minimal Inhibitory Concentration (MIC, micrograms/mL) was determined to test for their antimicrobial activity following the NCCLS guidelines (Clinical and Laboratory Standards Institute; formerly known as National Committee for Clinical and Laboratory Standards).

[6] = system: Staphylococcus aureus, MRSA ST5 (2001); assay: MIC, NCCLS/CLSI guidelines (Example 5), strain D; type: cell-based; settings: average of two independent experiments
In short: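 Expressed, purified plectasin wild-type and variant peptides were tested for minimal inhibitory concentration under NCCLS/CLSI guidelines. Values are the mean of two independent experiments, scored relative to wild-type plectasin MIC: 0 >100%, 1 80-100%, 2 50-80%, 3 <50%.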

[7] = system: panel of 6 different strains of Staphylococcus aureus; assay: Average MIC, NCCLS/CLSI guidelines using caMHB (Example 6); type: cell-based; settings: average over 6 S. aureus strains, duplicate; MIC above 32 counted as 64; read after 18-24 hours at 37° C.
In short: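 Six Staphylococcus aureus strains, MSSA and MRSA, were exposed in duplicate to peptide dilutions from 32 down to 0.03 microgram/mL in caMHB following CLSI guidance. Growth was scored after 18-24 h incubation at 37° C. The tabulated value is the mean MIC, with 64 used for any MIC >32 micrograms/mL.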

Sequence: GFGCNGPWDEDDMQCHNHCKSIKGYKGGYCAKGGFVCKCY (listed as Pseudoplectania nigrella) [wildtype, wildtype plectasin, parent antimicrobial polypeptide, reference compound]
- MEC against B. subtilis [1]: 0.09 micrograms/mL
- MEC against M. luteus [2]: 1.89 micrograms/mL
- MEC against S. epidermis [3]: 0.98 micrograms/mL
- Activity (antimicrobial activity relative to the activity of plectasin) [4]: 2
- MIC against S. aureus [5]: 8 micrograms/mL
- MIC, strain D [6]: (15 μg/mL)
- Relative MIC, strain D ([6]; relative to wildtype Plectasin): 1 (80-100% of Plectasin wildtype MIC)
- Average MIC [7]: 14 micrograms/mL
